According to PubChem BioAssay (NCI):
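GI50 marks 50% less growth. TGI marks complete inhibition of growth.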 Residues, ends and D or L forms follow the SMILES beside them. *: point of attachment. Cbz = O=C(OCc1ccccc1)*

Experiments:
Assay in all cases: growth of human tumour cells (NCI), 384-well format
OVCAR-5 ovarian = system: OVCAR-5 ovarian
HCC-2998 colon = system: HCC-2998 colon
HCT-15 colon = system: HCT-15 colon
TK-10 renal = system: TK-10 renal
ACHN renal = system: ACHN renal
SN12C renal = system: SN12C renal
SF-295 CNS = system: SF-295 CNS
OVCAR-8 ovarian = system: OVCAR-8 ovarian
NCI/ADR-RES ovarian = system: NCI/ADR-RES ovarian
DU-145 prostate = system: DU-145 prostate
SK-MEL-5 melanoma = system: SK-MEL-5 melanoma
HS 578T breast = system: HS 578T breast
SK-OV-3 ovarian = system: SK-OV-3 ovarian
HOP-62 NSCLC = system: HOP-62 NSCLC
A498 renal = system: A498 renal
UO-31 renal = system: UO-31 renal
SNB-75 CNS = system: SNB-75 CNS
MALME-3M melanoma = system: MALME-3M melanoma
MCF7 breast = system: MCF7 breast
KM12 colon = system: KM12 colon
NCI-H322M lung = system: NCI-H322M lung
MOLT-4 leukemia = system: MOLT-4 leukemia
NCI-H460 NSCLC = system: NCI-H460 NSCLC
K-562 leukemia = system: K-562 leukemia
IGROV1 ovarian = system: IGROV1 ovarian
U251 glioblastoma = system: U251 glioblastoma
UACC-257 melanoma = system: UACC-257 melanoma
COLO 205 colon = system: COLO 205 colon
OVCAR-4 ovarian = system: OVCAR-4 ovarian
OVCAR-3 ovarian = system: OVCAR-3 ovarian
PC-3 prostate = system: PC-3 prostate
A549 NSCLC = system: A549 NSCLC
RPMI-8226 leukemia = system: RPMI-8226 leukemia
SF-539 CNS = system: SF-539 CNS
SF-268 CNS = system: SF-268 CNS
LOX IMVI melanoma = system: LOX IMVI melanoma
MDA-MB-468 breast = system: MDA-MB-468 breast
786-0 renal = system: 786-0 renal
MDA-MB-435 melanoma = system: MDA-MB-435 melanoma
UACC-62 melanoma = system: UACC-62 melanoma
MDA-MB-231 breast = system: MDA-MB-231 breast
RXF 393 renal = system: RXF 393 renal
CAKI-1 renal = system: CAKI-1 renal
HL-60(TB) leukemia = system: HL-60(TB) leukemia
NCI-H23 lung = system: NCI-H23 lung
NCI-H226 lung = system: NCI-H226 lung
CCRF-CEM leukemia = system: CCRF-CEM leukemia

CC(C)C[C@@H](C=O)NC(=O)[C@H](CC(C)C)NC(=O)[C@H](CC(C)C)NC(=O)OCc1ccccc1 (Cbz-Leu-Leu-Leu-aldehyde)
GI50 (OVCAR-5 ovarian): 213 nM | TGI (OVCAR-5 ovarian): 440 nM | GI50 (HCC-2998 colon): 179 nM | TGI (HCC-2998 colon): 327 nM | GI50 (HCT-15 colon): 194 nM | TGI (HCT-15 colon): 362 nM | GI50 (TK-10 renal): 195 nM | TGI (TK-10 renal): 417 nM | GI50 (ACHN renal): 202 nM | TGI (ACHN renal): 425 nM | GI50 (SN12C renal): 177 nM | TGI (SN12C renal): 355 nM | GI50 (SF-295 CNS): 192 nM | TGI (SF-295 CNS): 385 nM | GI50 (OVCAR-8 ovarian): 164 nM | TGI (OVCAR-8 ovarian): 313 nM | GI50 (NCI/ADR-RES ovarian): 1570 nM | TGI (NCI/ADR-RES ovarian): 3060 nM | GI50 (DU-145 prostate): 212 nM | TGI (DU-145 prostate): 506 nM | GI50 (SK-MEL-5 melanoma): 215 nM | TGI (SK-MEL-5 melanoma): 370 nM | GI50 (HS 578T breast): 121 nM | TGI (HS 578T breast): 246 nM | GI50 (SK-OV-3 ovarian): 220 nM | TGI (SK-OV-3 ovarian): 538 nM | GI50 (HOP-62 NSCLC): 180 nM | TGI (HOP-62 NSCLC): 339 nM | GI50 (A498 renal): 263 nM | TGI (A498 renal): 796 nM | GI50 (UO-31 renal): 179 nM | TGI (UO-31 renal): 324 nM | GI50 (SNB-75 CNS): 185 nM | TGI (SNB-75 CNS): 351 nM | GI50 (MALME-3M melanoma): 155 nM | TGI (MALME-3M melanoma): 291 nM | GI50 (MCF7 breast): 99.1 nM | TGI (MCF7 breast): 603 nM | GI50 (KM12 colon): 178 nM | TGI (KM12 colon): 326 nM | GI50 (NCI-H322M lung): 361 nM | TGI (NCI-H322M lung): 1290 nM | GI50 (MOLT-4 leukemia): 74.8 nM | TGI (MOLT-4 leukemia): 200 nM | GI50 (NCI-H460 NSCLC): 200 nM | TGI (NCI-H460 NSCLC): 380 nM | GI50 (K-562 leukemia): 176 nM | TGI (K-562 leukemia): 334 nM | GI50 (IGROV1 ovarian): 184 nM | TGI (IGROV1 ovarian): 358 nM | GI50 (U251 glioblastoma): 211 nM | TGI (U251 glioblastoma): 407 nM | GI50 (UACC-257 melanoma): 131 nM | TGI (UACC-257 melanoma): 263 nM | GI50 (COLO 205 colon): 258 nM | TGI (COLO 205 colon): 714 nM | GI50 (OVCAR-4 ovarian): 174 nM | TGI (OVCAR-4 ovarian): 324 nM | GI50 (OVCAR-3 ovarian): 94 nM | TGI (OVCAR-3 ovarian): 225 nM | GI50 (PC-3 prostate): 177 nM | TGI (PC-3 prostate): 325 nM | GI50 (A549 NSCLC): 427 nM | TGI (A549 NSCLC): 1690 nM | GI50 (RPMI-8226 leukemia): 30.1 nM | TGI (RPMI-8226 leukemia): 70.2 nM | GI50 (SF-539 CNS): 167 nM | TGI (SF-539 CNS): 307 nM | GI50 (SF-268 CNS): 166 nM | TGI (SF-268 CNS): 313 nM | GI50 (LOX IMVI melanoma): 158 nM | TGI (LOX IMVI melanoma): 298 nM | GI50 (MDA-MB-468 breast): 126 nM | TGI (MDA-MB-468 breast): 253 nM | GI50 ([…]-0 renal): 180 nM | TGI (786-0 renal): 361 nM | GI50 (MDA-MB-435 melanoma): 176 nM | TGI (MDA-MB-435 melanoma): 321 nM | GI50 (UACC-62 melanoma): 168 nM | TGI (UACC-62 melanoma): 312 nM | GI50 (MDA-MB-231 breast): 177 nM | TGI (MDA-MB-231 breast): 326 nM | GI50 (RXF 393 renal): 149 nM | TGI (RXF 393 renal): 283 nM | GI50 (CAKI-1 renal): 228 nM | TGI (CAKI-1 renal): 676 nM | GI50 (HL-60(TB) leukemia): 171 nM | TGI (HL-60(TB) leukemia): 311 nM | GI50 (NCI-H23 lung): 163 nM | TGI (NCI-H23 lung): 310 nM | GI50 (NCI-H226 lung): 188 nM | TGI (NCI-H226 lung): 372 nM | GI50 (CCRF-CEM leukemia): 114 nM | TGI (CCRF-CEM leukemia): 239 nM
